According to ChEMBL document CHEMBL4393697, “Lipophilic efficient phenylthiazoles with potent undecaprenyl pyrophosphatase inhibitory activity” (Eur J Med Chem, 2019):
In brackets after ≈: the same amount, converted by molar mass.

System: Staphylococcus aureus
Assay: Antibacterial activity against methicillin resistant Staphylococcus aureus USA400 assessed as reduction in bacterial cell growth incubated for 18 to 20 hrs by broth microdilution method
Assay type: functional

SMILES	MIC
C/C(=N\NC(=N)N)c1sc(-c2ccc(C#Cc3ccoc3)cc2)nc1C	4 µg/mL (≈ 11 µM)
COC(=O)c1ccc(C#Cc2ccc(-c3nc(C)c(/C(C)=N/NC(=N)N)s3)cc2)c(C)c1	> 64 µg/mL
C/C(=N\NC(=N)N)c1sc(-c2ccc(C#Cc3ccc(C(N)=S)cc3)cc2)nc1C	64 µg/mL (≈ 148 µM)
C/C(=N\NC(=N)N)c1sc(-c2ccc(C#Cc3cncnc3)cc2)nc1C	> 64 µg/mL
C/C(=N\NC(=N)N)c1sc(-c2ccc(C#Cc3ccccn3)cc2)nc1C	32 µg/mL (≈ 85.5 µM)
C/C(=N\NC(=N)N)c1sc(-c2ccc(C#Cc3ncccn3)cc2)nc1C	> 64 µg/mL
C/C(=N\NC(=N)N)c1sc(-c2ccc(C#Cc3csc(C)c3C)cc2)nc1C	16 µg/mL (≈ 39.3 µM)
COC(=O)c1cccc(C#Cc2ccc(-c3nc(C)c(/C(C)=N/NC(=N)N)s3)cc2)c1	32 µg/mL (≈ 74.2 µM)
